Patent US12201707B2, “Nano-emulsion composition for tooth whitening and method for producing the same” (AMOREPACIFIC CORPORATION, priority 2021, dated 2025)

Assay: Tooth whitening test
Protocol: Discoloration was induced by immersing 12 hydroxyapatite (HAP) discs in black tea. Subsequently, the four discolored discs were immersed in vials containing each of the nanoemulsion composition of Example 31, a nanoemulsion composition in which oxygen was not captured as a control (control group 1), distilled water as a control (control group 2), and 3% hydrogen peroxide as a control (control group 3), respectively. The lightness values (L values) of the discs were measured on days 0, 2, 4 and 6 using a spectrophotometer. Before each measurement, the discs were completely dried at 55° C. for 1 hour using an oven.

## OO [Control 3, hydrogen peroxide]
Day 0
  lightness value (L value) of disc: 72.9
Day 2
  lightness value (L value) of disc: 84.3
Day 4
  lightness value (L value) of disc: 92.96
Day 6
  lightness value (L value) of disc: 97.48
